Measurements as given in patent publication US6337192B1, “MMSC1-an MMAC1 interacting protein” (Myraid Genetics, Inc., priority 1998, dated 2002).
* marks the point of attachment. Biotin = O=C1N[C@H]2[C@H](CS[C@H]2CCCCC(=O)*)N1

Tests used:
[1] = molecular target: T1, MMSc1 PDZ 3 (Homo sapiens, UniProt Q8NI35); assay: Peptide binding ELISA assay (PDZ Binding Assay), MMSC1 PDZ domain 3; conditions: immobilized GST fusion of MMSc1 PDZ 3; biotinylated peptide pre-bound to streptavidin-alkaline phosphatase; colorimetric phosphatase assay
T1 construct: made in house; host or cells: E. coli
T1 sequence (Q8NI35 365-453 limits assumed): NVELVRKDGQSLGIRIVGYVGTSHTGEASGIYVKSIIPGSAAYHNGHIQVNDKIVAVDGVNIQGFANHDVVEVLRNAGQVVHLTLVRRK
Description: (§1) cDNAs encoding each of the MMSC1 PDZ domains (amino acid residues identified in Table 1), and any desired control proteins, were generated by PCR and subcloned as glutathione S-transferase (GST) fusions in pGEX vectors (Pharmacia). After sequencing to confirm expression construct integrity, the resulting clones were expressed in E. coli and the desired fusion proteins isolated with glutathione-agarose and recovered with glutathione elution. These fusion proteins or control proteins were then adsorbed to different wells of a 96-well ELISA plate and remaining sites blocked with BSA. Synthetic commercially synthesized peptides encoding the desired PDZ-binding domain (i.e., the 16 C-terminal amino acids of MMAC1, or the C-terminal peptide sequences of interacting proteins identified by the approach of Example 2, or the C-terminal peptide sequences identified by the approach of Example 3), or a control peptide, and biotinylated at the amino-terminus, were pre-bound to streptavidin-alkaline phosphatase in a 4:1 molar ratio. The biotinylated peptide streptavidin-alkaline phosphatase complexes were then blocked with free biotin. These pre-bound peptide streptavidin-alkaline phosphatase complexes were then incubated with the immobilized PDZ domains in wash buffer containing PBS, BSA and triton-X100. Unbound material was removed with repeated washes. Bound peptide/streptavidin-alkaline phosphatase complex was then quantitated by a colorimetric phosphatase assay read on a 96-well plate reader.
(§2) The following peptides were used in the initial study: […]

[2] = molecular target: T2, MMSc1 PDZ 8 (Homo sapiens, UniProt Q8NI35); assay: Peptide binding ELISA assay (PDZ Binding Assay), MMSC1 PDZ domain 8; conditions: immobilized GST fusion of MMSc1 PDZ 8; biotinylated peptide pre-bound to streptavidin-alkaline phosphatase; colorimetric phosphatase assay
T2 construct: made in house; host or cells: E. coli
T2 sequence (Q8NI35 1437-1520 limits assumed): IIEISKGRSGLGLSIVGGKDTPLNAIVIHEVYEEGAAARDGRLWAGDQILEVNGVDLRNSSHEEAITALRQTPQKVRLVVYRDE
Description: as §1, §2

[3] = molecular target: T3, MMSc1 PDZ 7 (Homo sapiens, UniProt Q8NI35); assay: Peptide binding ELISA assay (PDZ Binding Assay), MMSC1 PDZ domain 7; conditions: immobilized GST fusion of MMSc1 PDZ 7; biotinylated peptide pre-bound to streptavidin-alkaline phosphatase; colorimetric phosphatase assay
T3 construct: made in house; host or cells: E. coli
T3 sequence (Q8NI35 1239-1322 limits assumed): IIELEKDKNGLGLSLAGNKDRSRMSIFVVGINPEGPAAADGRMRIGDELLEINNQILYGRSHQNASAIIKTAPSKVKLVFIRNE
Description: as §1, §2

[4] = molecular target: T4, MMSc1 PDZ 9 (Homo sapiens, UniProt Q8NI35); assay: Peptide binding ELISA assay (PDZ Binding Assay), MMSC1 PDZ domain 9; conditions: immobilized GST fusion of MMSc1 PDZ 9; biotinylated peptide pre-bound to streptavidin-alkaline phosphatase; colorimetric phosphatase assay
T4 construct: made in house; host or cells: E. coli
T4 sequence (Q8NI35 1533-1615 limits assumed): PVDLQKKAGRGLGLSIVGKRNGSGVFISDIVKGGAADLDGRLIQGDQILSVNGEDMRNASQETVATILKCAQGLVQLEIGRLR
Description: as §1, §2

[5] = molecular target: T5, MMSc1 PDZ 5 (Homo sapiens, UniProt Q8NI35); assay: Peptide binding ELISA assay (PDZ Binding Assay), MMSC1 PDZ domain 5; conditions: immobilized GST fusion of MMSc1 PDZ 5; biotinylated peptide pre-bound to streptavidin-alkaline phosphatase; colorimetric phosphatase assay
T5 construct: made in house; host or cells: E. coli
T5 sequence (Q8NI35 686-772 limits assumed): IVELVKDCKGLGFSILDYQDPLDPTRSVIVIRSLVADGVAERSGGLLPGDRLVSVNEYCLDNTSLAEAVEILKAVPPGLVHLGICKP
Description: as §1, §2

[6] = molecular target: T6, MMSc1 PDZ 6 (Homo sapiens, UniProt Q8NI35); assay: Peptide binding ELISA assay (PDZ Binding Assay), MMSC1 PDZ domain 6; conditions: immobilized GST fusion of MMSc1 PDZ 6; biotinylated peptide pre-bound to streptavidin-alkaline phosphatase; colorimetric phosphatase assay
T6 construct: made in house; host or cells: E. coli
T6 sequence (Q8NI35 1068-1160 limits assumed): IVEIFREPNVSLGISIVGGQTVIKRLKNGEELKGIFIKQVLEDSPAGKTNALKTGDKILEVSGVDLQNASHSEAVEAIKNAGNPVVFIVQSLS
Description: as §1, §2

**Q.** Biotin-ENEPFDEDQHTQITKV-OH [MMAC] was tested. Which A405 [1] did it give?
**A.** 0.01

**Q.** What about the A405 [2] of the same substance?
**A.** 0.30

**Q.** And the A405 [3]?
**A.** 1.25

**Q.** What about the A405 [4] of the same substance?
**A.** 0.10

**Q.** What about the A405 [5] of the same substance?
**A.** 0.00

**Q.** And the A405 [6]?
**A.** 0.23

**Q.** Which results are given for Biotin-SGSGILAPPVPPRNTR-OH [SH3]?
**A.** A405 [1]: 0.01; A405 [2]: 0.00; A405 [3]: 0.01; A405 [4]: 0.02; A405 [5]: 0.00; A405 [6]: 0.00

**Q.** Biotin-SGDDGDDPFLQYEFYV-OH [AF6] was tested. Which A405 [1] did it give?
**A.** 2.24

**Q.** What about the A405 [2] of the same substance?
**A.** 0.29

**Q.** What about the A405 [3] of the same substance?
**A.** 1.05

**Q.** What about the A405 [4] of the same substance?
**A.** 2.41

**Q.** What about the A405 [5] of the same substance?
**A.** 0.02

**Q.** What about the A405 [6] of the same substance?
**A.** 1.46
